Peptide text beside a SMILES is read from it.
Experiments:
SIRT1 = SIRT1 transcription, semi-quantitative RT-PCR in human epidermal progenitors; type: cell-based; settings: 72 h
Procedure: (§1) Human neonatal epidermal progenitors (Thermo Fisher Scientific, NY) were seeded in 6-well plates at a density of 2×10^5 cells/well. Each well received 2 ml of Epilife media containing 60 μM calcium chloride (Thermo Fisher Scientific, NY). Plates were incubated in a humidified chamber at 37 degrees Celsius and 5 percent CO2. Twenty-four hours later, cells were treated with various concentrations of oxyresveratrol or decapeptide-12 dissolved in PBS containing 5 percent DMSO. Control wells received vehicle only (5 percent DMSO and PBS). Final concentration of DMSO in each well was 0.05 percent.
(§2) After a 72 hour incubation period, cells were trypsinized and total RNA extracted, using RNeasy kit (Qiagen, Valencia, Calif.) according to the manufacturer's protocol.
(§3) RNA concentration was determined using nanodrop (Thermo fisher scientific, NY). Two μg of total RNA were used to synthesize cDNA using oligo dT primers and TaqMan reverse transcription reagents (Thermo fisher scientific, NY). The reaction was carried out in DNA Engine Peltier Thermal Cycler (Bio-Rad, Hercules, Calif.). The annealing temperature was 25 degrees Celsius for 10 minutes, followed by first strand synthesis at 48 degrees Celsius for 1 hour, and heat inactivation at 95 degrees Celsius for 5 minutes.
(§4) The SIRT1-7 primers (table 1) were designed using Primer3. The semi-quantitative PCR reactions were performed on a DNA Engine Peltier Thermo Cycler (Bio-Rad, Hercules, Calif.). PCR was carried under the following conditions: denaturation at 94 degrees Celsius for 2 minutes and primer extension at 54 degrees Celsius for 30 seconds in 34 cycles for SIRT 1-7 and the housekeeping gene 18S.
(§5) Samples were run and resolved on a 1.5 percent agarose gel containing 0.5 μg/ml of ethidium bromide and imaged using the FluorChem HD2 Imaging System (Protein simple, San Jose, Calif.). Densitometry analysis was carried out using the AlphaEase FC software (Protein simple, San Jose, Calif.). Intensity ratios were calculated as the intensity value for each gene divided by the intensity value of the internal control gene 18S.
(§6) The effect of the decapeptides P4, P4A, P4B, and P4C upon the transcription levels of sirtuins 1-7 was evaluated. Table 4 summarizes transcription levels for all four decapeptides with the corresponding genes, at tested concentrations of: 10, 30, 50, 100, and 300 (all in μM).

SIRT6 = SIRT6 transcription, semi-quantitative RT-PCR in human epidermal progenitors; type: cell-based; settings: 72 h
Procedure: as §1, §2, §3, §4, §5, §6

SIRT3 = SIRT3 transcription, semi-quantitative RT-PCR in human epidermal progenitors; type: cell-based; settings: 72 h
Procedure: as §1, §2, §3, §4, §5, §6

SIRT2 = SIRT2 transcription, semi-quantitative RT-PCR in human epidermal progenitors; type: cell-based; settings: 72 h
Procedure: as §1, §2, §3, §4, §5, §6

[1] = MTT cell proliferation assay, fibroblasts; type: cell-based, human; settings: human, MTT, 72 h, read-out: fibroblast proliferation rate after 72 hours
Procedure: (§7) Proliferation rates for three human cell lines (epidermal progenitors, melanoblasts, and fibroblasts) were determined using a TACS® MTT Cell Proliferation Kit. Cells were seeded at 2.5×10^4/well in 96-well plates in a humidified atmosphere with 5 percent CO2 at 37 degrees Celsius. Twenty-four hours later, the decapeptides were added to the corresponding wells at varying concentrations and incubated for 72 hours. The remainder of the procedure was performed following the manufacturer's protocol.

in vitro = type: cell-based; settings: human, human epidermal progenitors
Procedure: Proliferation rates were determined using a TACS® MTT Cell Proliferation Kit (R&D systems, Minneapolis, Minn.). Cells were seeded at 2.5×10^4/well in 96-well plates in a humidified atmosphere with 5 percent CO2 at 37 degrees Celsius. Twenty-four hours later, decapeptide-12 or oxyresveratrol were added to the corresponding wells at varying concentrations (0, 3, 10, 30, 100, 300, and 1000 μM), and cultures were then incubated for 72 hours. The remainder of the procedure was performed following the manufacturer's protocol.
as §7

SIRT7 = SIRT7 transcription, semi-quantitative RT-PCR in human epidermal progenitors; type: cell-based; settings: 72 h
Procedure: as §1, §2, §3, §4, §5, §6

SIRT4 = SIRT4 transcription, semi-quantitative RT-PCR in human epidermal progenitors; type: cell-based; settings: 72 h
Procedure: as §1, §2, §3, §4, §5, §6

[2] = MTT cell proliferation assay, melanoblasts; type: cell-based, human; settings: human, MTT, 72 h, read-out: melanoblast proliferation rate after 72 hours
Procedure: as §7

## CCCCCCCCCCCCCCCC(=O)N[C@@H](Cc1ccc(O)cc1)C(=O)N[C@@H](CCCNC(=N)N)C(=O)N[C@@H](CO)C(=O)N[C@@H](CCCNC(=N)N)C(=O)N[C@@H](CCCCN)C(=O)N[C@@H](Cc1ccc(O)cc1)C(=O)N[C@@H](CO)C(=O)N[C@@H](CO)C(=O)N[C@@H](Cc1c[nH]c2ccccc12)C(=O)N[C@@H](Cc1ccc(O)cc1)C(N)=O [P4A, Palmitoyl-YRSRKYSSWY-amide] (HELM PEPTIDE1{[CCCCCCCCCCCCCCCC(=O)[*:2]].Y.R.S.R.K.Y.S.S.W.Y.[am]}$$$$V2.0)
SIRT1; 10 μM
  SIRT1 transcription increase relative to control: 18 ± 2%
SIRT1; 30 μM
  SIRT1 transcription increase relative to control: 19 ± 1%
SIRT1; 50 μM
  SIRT1 transcription increase relative to control: 42 ± 5%
SIRT1; 100 μM
  SIRT1 transcription increase relative to control: 144 ± 5%
SIRT1; 300 μM
  SIRT1 transcription increase relative to control: 184 ± 2%
SIRT6; 10 μM
  SIRT6 transcription increase relative to control: 24 ± 5%
SIRT6; 30 μM
  SIRT6 transcription increase relative to control: 25 ± 5%
SIRT6; 50 μM
  SIRT6 transcription increase relative to control: 33 ± 7%
SIRT6; 100 μM
  SIRT6 transcription increase relative to control: 135 ± 10%
SIRT6; 300 μM
  SIRT6 transcription increase relative to control: 85 ± 5%
SIRT3; 10 μM
  SIRT3 transcription increase relative to control: 25 ± 4%
SIRT3; 30 μM
  SIRT3 transcription increase relative to control: 26 ± 3%
SIRT3; 50 μM
  SIRT3 transcription increase relative to control: 60 ± 4%
SIRT3; 100 μM
  SIRT3 transcription increase relative to control: 152 ± 2%
SIRT3; 300 μM
  SIRT3 transcription increase relative to control: 147 ± 2%
SIRT2; 10 μM
  SIRT2 transcription increase relative to control: 14 ± 1%
SIRT2; 30 μM
  SIRT2 transcription increase relative to control: 15 ± 1%
SIRT2; 50 μM
  SIRT2 transcription increase relative to control: 6 ± 3%
SIRT2; 100 μM
  SIRT2 transcription increase relative to control: 48 ± 1%
SIRT2; 300 μM
  SIRT2 transcription increase relative to control: 30 ± 5%
[1]
  viability at 72 h, 3 µM: 100%
  viability at 72 h, 10 µM: 99 ± 1%
  viability at 72 h, 30 µM: 98 ± 1%
  viability at 72 h, 50 µM: 98 ± 1%
  viability at 72 h, 100 µM: 97 ± 2%
  viability at 72 h, 300 µM: 97 ± 2%
  viability at 72 h, 500 µM: 96 ± 2%
  viability at 72 h, 1000 µM: 95 ± 2%
In vitro
  viability at 72 h, 3 µM: 99 ± 1%
  viability at 72 h, 10 µM: 99 ± 1%
  viability at 72 h, 30 µM: 98 ± 1%
  viability at 72 h, 50 µM: 97 ± 1%
  viability at 72 h, 100 µM: 97 ± 2%
  viability at 72 h, 300 µM: 96 ± 2%
  viability at 72 h, 500 µM: 96 ± 2%
  viability at 72 h, 1000 µM: 94 ± 2%
SIRT7; 10 μM
  SIRT7 transcription increase relative to control: 29 ± 6%
SIRT7; 30 μM
  SIRT7 transcription increase relative to control: 33 ± 5%
SIRT7; 50 μM
  SIRT7 transcription increase relative to control: 52 ± 4%
SIRT7; 100 μM
  SIRT7 transcription increase relative to control: 87 ± 6%
SIRT7; 300 μM
  SIRT7 transcription increase relative to control: 113 ± 2%
SIRT4; 10 μM
  SIRT4 transcription increase relative to control: 16 ± 1%
SIRT4; 30 μM
  SIRT4 transcription increase relative to control: 16 ± 1%
SIRT4; 50 μM
  SIRT4 transcription increase relative to control: 9 ± 4%
SIRT4; 100 μM
  SIRT4 transcription increase relative to control: 98 ± 12%
SIRT4; 300 μM
  SIRT4 transcription increase relative to control: 65 ± 1%
[2]
  viability at 72 h, 3 µM: 100%
  viability at 72 h, 10 µM: 100%
  viability at 72 h, 30 µM: 99 ± 1%
  viability at 72 h, 50 µM: 98 ± 1%
  viability at 72 h, 100 µM: 97 ± 2%
  viability at 72 h, 300 µM: 97 ± 2%
  viability at 72 h, 500 µM: 96 ± 2%
  viability at 72 h, 1000 µM: 95 ± 2%

## CCCCCCCCCCCCCCCC(=O)N[C@@H](Cc1ccc(O)cc1)C(=O)N[C@@H](CCCNC(=N)N)C(=O)N[C@@H](CO)C(=O)N[C@@H](CCCNC(=N)N)C(=O)N[C@@H](CCCCN)C(=O)N[C@H](Cc1ccc(O)cc1)C(=O)N[C@@H](CO)C(=O)N[C@@H](CO)C(=O)N[C@@H](Cc1c[nH]c2ccccc12)C(=O)N[C@@H](Cc1ccc(O)cc1)C(N)=O [P4B, Palmitoyl-YRSRK[*Y]SSWY-amide] (HELM PEPTIDE1{[CCCCCCCCCCCCCCCC(=O)[*:2]].Y.R.S.R.K.[dY].S.S.W.Y.[am]}$$$$V2.0)
SIRT1; 10 μM
  SIRT1 transcription increase relative to control: 10 ± 4%
SIRT1; 30 μM
  SIRT1 transcription increase relative to control: 10 ± 3%
SIRT1; 50 μM
  SIRT1 transcription increase relative to control: 48 ± 3%
SIRT1; 100 μM
  SIRT1 transcription increase relative to control: 135 ± 12%
SIRT1; 300 μM
  SIRT1 transcription increase relative to control: 155 ± 3%
SIRT6; 10 μM
  SIRT6 transcription increase relative to control: 21 ± 5%
SIRT6; 30 μM
  SIRT6 transcription increase relative to control: 22 ± 4%
SIRT6; 50 μM
  SIRT6 transcription increase relative to control: 10 ± 4%
SIRT6; 100 μM
  SIRT6 transcription increase relative to control: 107 ± 2%
SIRT6; 300 μM
  SIRT6 transcription increase relative to control: 81 ± 4%
SIRT3; 10 μM
  SIRT3 transcription increase relative to control: 22 ± 3%
SIRT3; 30 μM
  SIRT3 transcription increase relative to control: 23 ± 2%
SIRT3; 50 μM
  SIRT3 transcription increase relative to control: 28 ± 5%
SIRT3; 100 μM
  SIRT3 transcription increase relative to control: 78 ± 10%
SIRT3; 300 μM
  SIRT3 transcription increase relative to control: 142 ± 5%
SIRT2; 10 μM
  SIRT2 transcription increase relative to control: 5 ± 1%
SIRT2; 30 μM
  SIRT2 transcription increase relative to control: 8 ± 3%
SIRT2; 50 μM
  SIRT2 transcription increase relative to control: 17 ± 6%
SIRT2; 100 μM
  SIRT2 transcription increase relative to control: 52 ± 4%
SIRT2; 300 μM
  SIRT2 transcription increase relative to control: 40 ± 4%
[1]
  viability at 72 h, 3 µM: 100%
  viability at 72 h, 10 µM: 99 ± 1%
  viability at 72 h, 30 µM: 99 ± 1%
  viability at 72 h, 50 µM: 99 ± 1%
  viability at 72 h, 100 µM: 98 ± 2%
  viability at 72 h, 300 µM: 97 ± 2%
  viability at 72 h, 500 µM: 96 ± 2%
  viability at 72 h, 1000 µM: 96 ± 2%
In vitro
  viability at 72 h, 3 µM: 99 ± 1%
  viability at 72 h, 10 µM: 99 ± 1%
  viability at 72 h, 30 µM: 98 ± 1%
  viability at 72 h, 50 µM: 98 ± 1%
  viability at 72 h, 100 µM: 97 ± 1%
  viability at 72 h, 300 µM: 97 ± 1%
  viability at 72 h, 500 µM: 95 ± 2%
  viability at 72 h, 1000 µM: 94 ± 2%
SIRT7; 10 μM
  SIRT7 transcription increase relative to control: 20 ± 6%
SIRT7; 30 μM
  SIRT7 transcription increase relative to control: 23 ± 5%
SIRT7; 50 μM
  SIRT7 transcription increase relative to control: 54 ± 7%
SIRT7; 100 μM
  SIRT7 transcription increase relative to control: 61 ± 7%
SIRT7; 300 μM
  SIRT7 transcription increase relative to control: 103 ± 8%
SIRT4; 10 μM
  SIRT4 transcription increase relative to control: 9 ± 1%
SIRT4; 30 μM
  SIRT4 transcription increase relative to control: 10 ± 1%
SIRT4; 50 μM
  SIRT4 transcription increase relative to control: 17 ± 1%
SIRT4; 100 μM
  SIRT4 transcription increase relative to control: 86 ± 6%
SIRT4; 300 μM
  SIRT4 transcription increase relative to control: 49 ± 4%
[2]
  viability at 72 h, 3 µM: 100%
  viability at 72 h, 10 µM: 100%
  viability at 72 h, 30 µM: 99 ± 1%
  viability at 72 h, 50 µM: 98 ± 1%
  viability at 72 h, 100 µM: 97 ± 2%
  viability at 72 h, 300 µM: 96 ± 2%
  viability at 72 h, 500 µM: 95 ± 2%
  viability at 72 h, 1000 µM: 94 ± 2%

Reference: patent US20180296456A1, “Decapeptide-12 Modulation of Sirtuin Gene Expression in Epidermal Keratinocyte Progenitors” (Escape Therapeutics, Inc., priority 2017, published 2018)
